Laboratory results reported in US11324832B2, “Tripartite modulators of endosomal G protein-coupled receptors” (Endosome Therapeutics, Inc., priority 2015, dated 2022).
Where a SMILES comes first, the peptide text is derived from it. [ ]: non-standard residue; d: D form. The star is where a group is joined. X1 = CC(C)CCC[C@@H](C)[C@H]1CC[C@H]2[C@@H]3CC[C@H]4C[C@@H](O*)CC[C@]4(C)[C@H]3CC[C@]12C; PEG4 = NCCOCCOCCOCCOCCC(=O)O; PEG3 = NCCOCCOCCOCCC(=O)O

How the values were obtained:
CLR plus RAMP1 = molecular target: T1, CLR plus RAMP1 (Homo sapiens, UniProt O60894+Q16602); test: FRET ERK biosensors in HEK293 cells expressing CLR plus RAMP1; assay type: cell-based; conditions: endocytic inhibitor plus CGRP
T1 construct: expressed in transfected cells; host or cells: HEK293 (transient)
T1 sequence (Q16602 23-461): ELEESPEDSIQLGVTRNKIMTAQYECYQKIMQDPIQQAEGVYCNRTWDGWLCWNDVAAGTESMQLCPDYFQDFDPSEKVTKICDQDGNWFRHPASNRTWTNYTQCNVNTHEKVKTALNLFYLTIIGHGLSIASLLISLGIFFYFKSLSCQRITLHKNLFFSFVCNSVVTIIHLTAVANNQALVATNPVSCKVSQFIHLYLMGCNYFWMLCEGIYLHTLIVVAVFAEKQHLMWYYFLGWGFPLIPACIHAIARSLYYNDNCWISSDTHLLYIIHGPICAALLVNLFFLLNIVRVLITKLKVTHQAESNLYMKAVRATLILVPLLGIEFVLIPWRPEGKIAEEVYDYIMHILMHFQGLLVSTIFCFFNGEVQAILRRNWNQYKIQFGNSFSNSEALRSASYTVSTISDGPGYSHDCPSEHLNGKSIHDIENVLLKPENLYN
T1 sequence (O60894 27-148): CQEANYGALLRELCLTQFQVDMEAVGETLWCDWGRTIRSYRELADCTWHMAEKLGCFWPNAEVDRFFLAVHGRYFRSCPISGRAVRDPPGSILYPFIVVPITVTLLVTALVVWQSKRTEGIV
Procedure: HEK293 cells were transfected with 55 ng/well rat NK1R with N-terminal HA. 11 epitope tag (HA-NK1R) or CLR plus RAMP1 and 40 ng/well FRET biosensors. FRET was assessed 48 h after transfection, following serum restriction (0.5% FBS overnight). For experiments using clathrin or dynamin siRNA, cells were transfected with 55 ng/well rat HA-NK1R, 40 ng/well FRET biosensor and 25 nM/well scrambled, clathrin or dynamin ON-TARGETplus SMARTpool siRNA (GE Dharmacon). FRET was assessed 72 h after transfection, following serum restriction (0.5% FBS overnight). Cells were equilibrated in HBSS at 37° C. and FRET was analyzed using a GE Healthcare INCell 2000 Analyzer. For GFP/RFP emission ratio analysis, cells were sequentially excited using a FITC filter (490/20) with emission measured using dsRed (605/52) and FITC (525/36) filters, and a polychroic optimized for the FITC/dsRed filter pair (Quad4). For CFP/YFP emission ratio analysis, cells were sequentially excited using a CFP filter (430/24) with emission measured using YFP (535/30) and CFP (470/24) filters, and a polychroic optimized for the CFP/YFP filter pair (Quad3). Cells were imaged every 1 min, allowing image capture of 14 wells per minute. Baseline emission ratio images were captured for 4 min. […] Data were analyzed as described and expressed as emission ratios relative to baseline for each cell (F/F0). […]

NK1R [1] = test: Alexa568-SP trafficking in HEK-NK1R cells; assay type: cell-based, rat; conditions: 30 min at 37° C.
NK1R [2] = test: NK1R endocytosis in rat spinal neurons in vivo; conditions: lamina I neurons; i.t. 50 μM 30 min before intraplantar capsaicin; 10 min after capsaicin
Procedure: The spinal cord was collected 10 min later for localization of the NK1R. In controls (intrathecal, intraplantar vehicle), NK1R-IR was mostly at the plasma membrane of the soma and neurites of lamina I neurons (80.7±1.6% of total NK1R-IR within […] of the soma plasma membrane).
After 10 min, rats were transcardially perfused with PBS and then 4% PFA. The spinal cord was removed, immersion fixed in PFA (2 h, 4° C.), and cryoprotected (30% sucrose, PBS, 24 h, 4° C.). The spinal cord (T12 to L4) was embedded in OCT and […] serial coronal sections were cut into 48-well plates containing PBS. Free-floating sections were blocked in PBS containing 10% normal horse serum (1 h, RT). Sections were incubated with mouse anti-NeuN (1:20,000; AbCam) and either rabbit anti-NK1R (1:5,000, #94168) or rabbit anti-pERK (1:200; Cell Signaling Technology) in PBS containing 3% normal horse serum (48 h, 4° C.). Sections were washed (4×20 min in PBS) and incubated with donkey anti-rabbit Alexa488 (1:8,000) and donkey anti-mouse Alexa568 (1:2,000 (Life Technologies) (1 h, RT). Sections were washed, incubated with DAPI (10 μg/ml, 5 min), and mounted in Vectashield (Vector Laboratories).
Tissues and cells were observed using a Leica SP8 confocal microscope using HCX PL APO 40× (NA 1.30) and HCX PL APO 63× (NA 1.40) oil objectives. Z stacks were collected of NKiR-positive neurons in lamina I of the dorsal horn. Video projections of Z stacks were made using Imaris Software (Bitplane). NK1R endocytosis and pERK expression were quantified using ImageJ. To quantify NK1R internalization in lamina I neurons, the border of the cytoplasm of the neuronal soma was defined by NeuN fluorescence, and NK1R fluorescence within 5 pixels (0.5 μm) of the border was defined as plasma membrane-associated receptor. The ratio of plasma membrane to cytosolic NK1R-IR fluorescence was determined in >6 lamina I neurons per condition. To quantify ERK activation, the ratio of the number of pERK-IR neurons to total Neu-N-positive neurons in lamina I was determined in >6 fields (×40 objective) per condition.

ERK = ERK phosphorylation in rat lamina I dorsal horn neurons in vivo; conditions: i.t. 30 min before intraplantar capsaicin
Procedure: Painful peripheral stimuli activate ERK in NKiR-expressing spinal neurons, which coincides with receptor endocytosis and contributes to hyperalgesia. Intraplantar capsaicin stimulated ERK phosphorylation in lamina I dorsal horn neurons (FIG. 5B). […] Thus, capsaicin stimulates clathrin- and dynamin-dependent NK1R endocytosis and ERK activation in spinal neurons in vivo.
After 10 min, rats were transcardially perfused with PBS and then 4% PFA. The spinal cord was removed, immersion fixed in PFA (2 h, 4° C.), and cryoprotected (30% sucrose, PBS, 24 h, 4° C.). The spinal cord (T12 to L4) was embedded in OCT and […] serial coronal sections were cut into 48-well plates containing PBS. Free-floating sections were blocked in PBS containing 10% normal horse serum (1 h, RT). […]
Tissues and cells were observed using a Leica SP8 confocal microscope using HCX PL APO 40× (NA 1.30) and HCX PL APO 63× (NA 1.40) oil objectives. […] NK1R endocytosis and pERK expression were quantified using ImageJ. To quantify NK1R internalization in lamina I neurons, the border of the cytoplasm of the neuronal soma was defined by NeuN fluorescence, and NK1R fluorescence within 5 pixels (0.5 μm) of the border was defined as plasma membrane-associated receptor. The ratio of plasma membrane to cytosolic NK1R-IR fluorescence was determined in >6 lamina I neurons per condition. […]

[3] = Stability in the spinal cord after intrathecal injection to mice; assay type: in vivo, mouse; conditions: 10 μM, 5 μl, spinal cord after 3 hours
Procedure: To assess stability in cerebrospinal fluid, spantide or Compound 1 (10 μg/ml) was incubated in human cerebrospinal fluid (0-4 h, 37° C.), and then snap frozen. Proteins were precipitated using ACN. To assess stability in the spinal cord, spantide or Compound 1 was injected intrathecally to mice (10 μM, 5 μl, L3/L4). After 3 hours, a spinal cord segment 5 mm on either side the injection site was removed and snap frozen. Tissues were crushed with a glass rod in a mixture of methanol (30 μl) and EDTA/KF (60 μl, 0.1 M EDTA, 4 g/l KF), vortexed and centrifuged to remove lipids. Peptides were extracted from the pellet with 0.5% formic acid in 75% ACN/H2O (100 μl). Samples were analyzed assayed by LC/MS using a Waters Xevo TQ or TQD triple quadrupole mass spectrometer coupled to a Waters UPLC. Peptides were separated by HPLC (Supelco Ascentis Express Peptide ES C18 column, 50×2.1 mm, 2.7 μm) with 0.05% formic acid in H2O and ACN as solvents. Peptides were quantified by comparison to calibration standards (50-50,000 ng/ml).

NK1R [4] = molecular target: NK1R (Rattus norvegicus, UniProt P14600); test: SP-stimulated Ca2+ signaling in HEK-NK1R cells, antagonist mode; assay type: cell-based; design: Full length and truncated 6312 rat HA-NK1R have been described; expressed in transfected cells; host or cells: HEK293 (transient); conditions: SP 3 nM (EC80), HEK-NK1R cells, 30 min pre-incubation; read-out: pIC50, antagonism of SP-stimulated Ca^2+ signaling (converted)
Chain of NK1R (Rattus norvegicus, UniProt P14600) (P14600 whole entry, the tested form may be a part): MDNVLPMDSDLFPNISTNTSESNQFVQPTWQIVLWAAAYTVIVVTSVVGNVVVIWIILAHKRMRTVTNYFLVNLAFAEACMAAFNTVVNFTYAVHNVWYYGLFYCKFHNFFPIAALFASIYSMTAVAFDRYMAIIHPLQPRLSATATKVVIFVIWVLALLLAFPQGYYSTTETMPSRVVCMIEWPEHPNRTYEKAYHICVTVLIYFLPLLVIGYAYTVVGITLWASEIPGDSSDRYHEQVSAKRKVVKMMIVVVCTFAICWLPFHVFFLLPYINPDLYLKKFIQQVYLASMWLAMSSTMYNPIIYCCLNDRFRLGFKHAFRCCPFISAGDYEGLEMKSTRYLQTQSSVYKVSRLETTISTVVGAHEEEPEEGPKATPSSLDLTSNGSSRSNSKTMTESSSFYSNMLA
Procedure: [Ca^2+]i was measured as described (Jensen, D. D. et al., J Biol Chem, 2014, 289, 20283-20294). HEK293 cells transiently expressing HA-NK1R or HA-CLR/Myc-RAMP1 were loaded with Fura2-AM (2 μM).

Structure (SMILES)	effect on CGRP activation of cytosolic ERK (CLR plus RAMP1)	effect on CGRP activation of nuclear ERK (CLR plus RAMP1)	effect on Alexa568-SP redistribution to endosomes (NK1R [1])	NK1R-IR at plasma membrane (% membrane) (NK1R [2]) [%]	effect on capsaicin-evoked activation of spinal ERK (ERK)	stability after intrathecal injection to mice [3]	IC50 (NK1R [4]) [nM]
O=C(N/N=C/c1cc(O)c(O)cc1O)c1cc2ccccc2cc1O [Dy4]	prevented activation of nuclear but not cytosolic ERK	prevented activation of nuclear but not cytosolic ERK	caused retention of Alexa568-SP in vesicles close to the plasma membrane	59.6±0.2	prevented capsaicin-evoked activation of spinal ERK		
O=C1NC(=NS(=O)(=O)c2cccc3ccccc23)S/C1=C\c1ccc(Br)cc1 [PS2]			caused retention of Alexa568-SP in vesicles close to the plasma membrane	69.0±1.1	prevented capsaicin-evoked activation of spinal ERK		
CC(=O)N[C@@H](CC(=O)O[C@H]1CC[C@@]2(C)[C@@H](CC[C@@H]3[C@@H]2CC[C@]2(C)[C@@H]([C@H](C)CCCC(C)C)CC[C@@H]32)C1)C(=O)NCCOCCOCCOCCOCCC(=O)NCCOCCOCCOCCC(=O)NCCOCCOCCOCCOCCC(=O)N[C@H](CCCNC(=N)N)C(=O)N1CCC[C@H]1C(=O)N[C@@H](CCCCN)C(=O)N1CCC[C@H]1C(=O)N[C@@H](CCC(N)=O)C(=O)N[C@@H](CCC(N)=O)C(=O)N[C@H](Cc1c[nH]c2ccccc12)C(=O)N[C@@H](Cc1ccccc1)C(=O)N[C@H](Cc1c[nH]c2ccccc12)C(=O)N[C@@H](CC(C)C)C(=O)N[C@@H](CC(C)C)C(N)=O [Compound 1] (Ac-D(X1)[PEG4][PEG3][PEG4][dR]PKPQQ[dW]F[dW]LL-NH2)						stable	3.63
